Laboratory results from patent US9138398B2, “Cationic alcohols and uses thereof” (Living Proof, Inc., priority 2009, dated 2015).

Assay: Contact angle measurements of hair fiber (Cahn DCA-312 tensiometer)
Settings: 1.5% Example 15 in conditioner C2, 20 cycles, versus placebo conditioner C1
From the text: As described previously, improving upon benefits such as hydrophobicity, shine and tactile properties leads to the perception of healthier, more conditioned hair. Contact angle measurement has proven to be a viable method to measure the degree of hydrophobicity of hair. In principle, it measures the angle at the point of contact of a liquid with a surface. If the surface is highly hydrophobic (such as virgin, untreated hair), the angle of the water droplet at the interface would be greater than 90°. Likewise, a hydrophilic surface would cause the water droplet to fall flat, and the angle would be close to 0°.
Virgin black hair tresses (1.5 g each, from International Hair Importers) were bleached once with a homogeneous mixture of Clairol Pure White 20V hydrogen peroxide solution (45 ml) and Clairol bleach powder Ultra Concentrate BW2000 (6.75 g) for 10 min at 50° C. The tresses were shampooed with a 7.5% Sodium Lauryl Sulfate solution twice and air-dried for 24 h. […]
Contact angle measurements were performed with a Cahn DCA-312 tensiometer. […] The water surface tension was determined with a platinum DuNuoy ring (Cat 14-812-5) to be 70.6 mN/m. […]
The hair fiber diameter was measured with a precision micrometer (Mitutoyo Cat 293-761-30). […] The advancing and receding contact angles were measured for each sample, with runs performed in triplicate.

Compound: C[N+](C)(CC[N+](C)(C)CC(O)COCC(F)(F)C(F)F)CC(O)COCC(F)(F)C(F)F (stereo not shown) [Example 15]
- Change of contact angle of bleached hair (hydrophobicity), in words: significantly increased the contact angle
